Measurements taken from the supplement of paper PMC9663587.

Key:
MDAMB415 = assay: GRmax, 72 h; higher = less effect;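 further: breast cell lines in 384-well plates, nine doses across a 10^4 range, Dye Drop imaging of viable cells vs DMSO and time-zero plates, GR 0 means no net growth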
HCC1419 = assay: GRmax, 72 h; higher = less effect;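 further: breast cell lines in 384-well plates, nine doses across a 10^4 range, Dye Drop imaging of viable cells vs DMSO and time-zero plates, GR 0 means no net growth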
MCF10A = assay: GRmax, 72 h; higher = less effect;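 further: breast cell lines in 384-well plates, nine doses across a 10^4 range, Dye Drop imaging of viable cells vs DMSO and time-zero plates, GR 0 means no net growth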
BT549 = assay: GRmax, 72 h; higher = less effect;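 further: breast cell lines in 384-well plates, nine doses across a 10^4 range, Dye Drop imaging of viable cells vs DMSO and time-zero plates, GR 0 means no net growth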
CAMA1 = assay: GRmax, 72 h; higher = less effect
HCC1954 = assay: GRmax, 72 h; higher = less effect
PDX1206 = assay: area over the GR curve, 72 h; higher = more effect;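 further: Dye Drop or Deep Dye Drop imaging of viable cells in 384-well plates (Hoechst nuclei, LIVE/DEAD dye), nine half-log doses, GR normalized to DMSO controls and time-zero plates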
MCF10A (GM) = assay: area over the GR curve, 72 h; higher = more effect;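 further: Dye Drop or Deep Dye Drop imaging of viable cells in 384-well plates (Hoechst nuclei, LIVE/DEAD dye), nine half-log doses, GR normalized to DMSO controls and time-zero plates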
HCC1500 = assay: area over the GR curve, 72 h; higher = more effect;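 further: Dye Drop or Deep Dye Drop imaging of viable cells in 384-well plates (Hoechst nuclei, LIVE/DEAD dye), nine half-log doses, GR normalized to DMSO controls and time-zero plates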
MDAMB157 = assay: area over the GR curve, 72 h; higher = more effect;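 further: Dye Drop or Deep Dye Drop imaging of viable cells in 384-well plates (Hoechst nuclei, LIVE/DEAD dye), nine half-log doses, GR normalized to DMSO controls and time-zero plates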
HCC1428 = assay: area over the GR curve, 72 h; higher = more effect

Structure (SMILES)	GRmax, 72 h (MDAMB415)	GRmax, 72 h (HCC1419)	GRmax, 72 h (MCF10A)	GRmax, 72 h (BT549)	GRmax, 72 h (CAMA1)	GRmax, 72 h (HCC1954)	area over the GR curve (PDX1206)	area over the GR curve (MCF10A (GM))	area over the GR curve (HCC1500)	area over the GR curve (MDAMB157)	area over the GR curve (HCC1428)
COc1cccc(OCCCN)c1-c1cc(Nc2cnc(C#N)cn2)n[nH]1	0.69 GR	0.248 GR	0.351 GR	-0.422 GR	0.084 GR	-0.312 GR	0.427 GR	0.245 GR			
Cc1nc(NC(=O)N2CCC[C@H]2C(N)=O)sc1-c1ccnc(C(C)(C)C(F)(F)F)c1 [Alpelisib/BYL719] (max 10 µM)	0.613 GR	-0.002 GR	0.579 GR	0.684 GR	0.979 GR	-0.341 GR			-0.0097 GR	0.101 GR	0.0107 GR
CC(=O)c1c(C)c2cnc(Nc3ccc(N4CCN(CCOCCOCCOCCNC(=O)COc5cccc6c5C(=O)N(C5CCC(=O)NC5=O)C6=O)CC4)cn3)nc2n(C2CCCC2)c1=O (stereo not drawn) [BSJ-03-123] (max 10 µM)	0.149 GR	0.165 GR	-0.113 GR	0.0183 GR	0.0546 GR	0.0033 GR	0.163 GR	0.25 GR			
CC(=O)c1c(C)c2cnc(Nc3ccc(N4CCNCC4)cn3)nc2n(C2CCCC2)c1=O (max 3.162 µM)	0.117 GR	0.441 GR	0.454 GR	1.08 GR	0.282 GR	0.526 GR			0.11 GR	-0.0037 GR	0.314 GR
CS(=O)(=O)N1CCN(Cc2cc3nc(-c4cccc5[nH]ncc45)nc(N4CCOCC4)c3s2)CC1 [Pictilisib/GDC0941] (max 10 µM)	-0.687 GR	-0.21 GR	0.193 GR	0.146 GR	-0.237 GR	-0.227 GR			0.203 GR	0.258 GR	0.117 GR
Cc1cc(Nc2ncc(Cl)c(Nc3ccccc3S(=O)(=O)C(C)C)n2)c(OC(C)C)cc1C1CCNCC1 [Ceritinib/LDK378] (max 10 µM)	-0.975 GR	-0.867 GR	-0.319 GR	-0.228 GR	-0.699 GR	-0.445 GR			0.274 GR	0.46 GR	0.295 GR
CC(=O)Nc1cccc(-n2c(=O)n(C3CC3)c(=O)c3c(Nc4ccc(I)cc4F)n(C)c(=O)c(C)c32)c1 (max 1 µM)	0.285 GR	0.426 GR	0.225 GR	0.598 GR	0.553 GR	0.229 GR			0.212 GR	0.301 GR	0.0695 GR
CC[C@@]1(O)C(=O)OCc2c1cc1n(c2=O)Cc2cc3c(CN(C)C)c(O)ccc3nc2-1 [Topotecan] (max 10 µM)		-0.786 GR	-0.2 GR	-0.241 GR	-0.423 GR	-0.401 GR			1.22 GR	1.08 GR	0.835 GR
CCNC(=O)c1noc(-c2cc(C(C)C)c(O)cc2O)c1-c1ccc(CN2CCOCC2)cc1 [Luminespib/NVP-AUY922] (max 1 µM)	-0.305 GR	-0.297 GR	-0.172 GR	-0.106 GR	-0.0698 GR	-0.374 GR			0.546 GR	0.615 GR	0.637 GR
COc1cc2nccc(Oc3ccc(NC(=O)C4(C(=O)Nc5ccc(F)cc5)CC4)cc3)c2cc1OC [Cabozantinib] (max 10 µM)	0.412 GR	0.622 GR	0.843 GR	0.533 GR	0.244 GR	0.639 GR			-0.0192 GR	0.21 GR	0.0108 GR
NC(=O)Nc1cc(-c2cccc(F)c2)sc1C(=O)N[C@H]1CCCNC1 [AZD7762] (max 10 µM)	-0.481 GR	-0.0826 GR	-0.18 GR	-0.482 GR	-0.0865 GR	-0.398 GR			0.614 GR	0.984 GR	0.323 GR
COc1cccc2c1C(=O)c1c(O)c3c(c(O)c1C2=O)C[C@@](O)(C(=O)CO)C[C@@H]3O[C@H]1C[C@H](N)[C@H](O)[C@H](C)O1 [Doxorubicin] (max 3.162 µM)	-0.423 GR	-0.466 GR	-0.324 GR	-0.331 GR	-0.652 GR	-0.338 GR			0.751 GR	0.966 GR	0.895 GR
CCc1cnn2c(NCc3ccc[n+]([O-])c3)cc(N3CCCC[C@H]3CCO)nc12 (max 1 µM)	-0.488 GR	-0.476 GR	-0.23 GR	-0.292 GR	-0.485 GR	-0.464 GR			0.662 GR	0.765 GR	0.656 GR
CN1CCN(CCOc2cc(OC3CCOCC3)c3c(Nc4c(Cl)ccc5c4OCO5)ncnc3c2)CC1 [Saracatinib/AZD0530] (max 10 µM)	0.324 GR	-0.115 GR	0.148 GR	0.556 GR	0.774 GR	0.0936 GR			0.433 GR	0.17 GR	0.0609 GR
N.N.[Cl][Pt][Cl] [Cisplatin] (max 10 µM)		0.0949 GR	0.379 GR	0.0674 GR	-0.0042 GR	-0.0741 GR			0.0866 GR	0.117 GR	0.221 GR
CCOc1cc2ncc(C#N)c(Nc3ccc(OCc4ccccn4)c(Cl)c3)c2cc1NC(=O)/C=C/CN(C)C [Neratinib/HKI272] (max 3.162 µM)	0.0922 GR	-0.501 GR	0.0959 GR	0.208 GR	0.449 GR	-0.0909 GR			0.165 GR	0.191 GR	0.101 GR
CCN1CCN(Cc2ccc(Nc3ncc(F)c(-c4cc(F)c5nc(C)n(C(C)C)c5c4)n3)nc2)CC1 (max 10 µM)	-0.0085 GR	0.228 GR	0.151 GR	0.0333 GR	0.222 GR	-0.505 GR			0.342 GR	0.266 GR	0.636 GR
O=C(c1cc(Cc2n[nH]c(=O)c3ccccc23)ccc1F)N1CCN(C(=O)C2CC2)CC1 [Olaparib/AZD2281] (max 10 µM)	0.816 GR	0.632 GR	0.794 GR	0.543 GR	0.679 GR	0.527 GR			0.0931 GR	0.115 GR	0.323 GR
